{"source": "patent US11896581B2", "about": "“Compositions and methods for providing health benefits in an animal” (Société des Produits Nestlé S.A., priority 2020, dated 2024)", "system": "H4IIE cells", "assay": "Cellular bioassay of hepatic glucose production (gluconeogenesis) induced by sodium pyruvate and lactate (SLP)", "assay_type": "cell-based", "conditions": "for glucose production relative to SLP condition (100%): 6 h incubation", "method": "A cellular bioassay was established according to a method described by Okamoto et al. (Establishment and characterization of a novel method for evaluating gluconeogenesis using hepatic cell lines, H4IIE and HepG2, Archives of Biochemistry and Biophysics, Volume 491, Issues 1-2, November 2009, Pages 46-52; Takashi Okamoto, Naohide Kanemoto, Takashi Ban, Toshiki Sudo, Keisuke Nagano, Ichiro Niki.) (FIG. 1). Briefly, H4IIE cells pre-cultured at high density were seeded into a 12-well plate at a density of 5.714×10^5 cells/cm^2 and cultured for 24 h in EMEM supplemented with 10% FCS. […] The assay was started by switching the medium for KHH Buffer in the presence of gluconeogenesis-inducing substrates (1 mM sodium pyruvate and 10 mM lactate). Compounds were added at different concentrations and tested in duplicate. 10 mM of metformin was included as a positive control for inhibition of gluconeogenesis. The conditioned medium was collected after 6 h of incubation (stored at −80° C.). The cells remaining in the wells are washed once with PBS and then stored dry at −20° C.). The medium is used to assay glucose content using a fluorometric glucose assay kit. Frozen cells' proteins are first extracted and then quantified, to normalize the glucose results. Components were tested in at least two independent experiments performed at different cell passages. The selected compounds (Histidine and Ferulic acid) were tested individually to assess their inhibitory effect on hepatic glucose production (Table 1) using a range of concentrations determined from previous internal knowledge and literature. Additional experiments on individual compounds were conducted: the amino acid arginine and leucine to test the specificity of histidine effects against other amino acids. In addition, interactions and synergies between compounds were further explored using combined formulations, for which detailed information is provided in Table 1. For data analysis described herein, results are expressed as relative glucose produced in every treatment compared to the glucose produced using SLP treatment. […] Independent experiments were performed, using different cells passages in each condition. […] Sodium Pyruvate (1 mM) and Sodium Lactate (10 mM) was used to induce gluconeogenesis in H4IIE cells."}
{"compound": "N=C(N)NCCC[C@H](N)C(=O)O", "note": "[Arginine, arginine, reference compound]", "values": [{"measurement": "glucose production relative to SLP condition (100%)", "setting": "single compound at 0.2 mM", "result": "81.44%±2.72"}, {"measurement": "glucose production relative to SLP condition (100%)", "setting": "single compound at 2 mM", "result": "65.01%±11.52"}, {"measurement": "glucose production relative to SLP condition (100%)", "setting": "single compound at 20 mM", "result": "45.40%±3.57"}]}
{"compound": "COc1cc(/C=C/C(=O)O)ccc1O", "note": "[Ferulic acid, ferulic acid]", "values": [{"measurement": "inhibition on doubling the dose", "setting": "dose doubled from 0.5 μM to 1 μM", "result": 30, "unit": "%"}, {"measurement": "inhibiting effect of doubling the dose", "setting": "dose doubled from 1 μM to 2 μM", "result": 40, "unit": "%"}, {"measurement": "inhibition on doubling the dose", "setting": "dose doubled from 2 μM to 4 μM", "result": 32, "unit": "%"}, {"measurement": "glucose production relative to SLP condition (100%)", "setting": "single compound at 0.5 μM", "result": "85.67%±3.81"}, {"measurement": "glucose production relative to SLP condition (100%)", "setting": "single compound at 0.8 μM", "result": "81.51%±11.70"}, {"measurement": "glucose production relative to SLP condition (100%)", "setting": "single compound at 1 μM", "result": "61.38%±15.82"}, {"measurement": "glucose production relative to SLP condition (100%)", "setting": "single compound at 2 μM", "result": "36.57%±6.02"}, {"measurement": "glucose production relative to SLP condition (100%)", "setting": "single compound at 4 μM", "result": "25.08%±5.03"}]}
{"compound": "CC(C)C[C@H](N)C(=O)O", "note": "[Leucine, leucine, reference compound]", "values": [{"measurement": "glucose production relative to SLP condition (100%)", "setting": "single compound at 0.2 mM", "result": "84.69%±1.05"}, {"measurement": "glucose production relative to SLP condition (100%)", "setting": "single compound at 2 mM", "result": "75.37%±0.36"}, {"measurement": "glucose production relative to SLP condition (100%)", "setting": "single compound at 20 mM", "result": "83.76%±7.30"}]}
{"compound": "N[C@@H](Cc1c[nH]cn1)C(=O)O", "note": "[histidine]", "values": [{"measurement": "inhibiting effect of doubling the dose", "setting": "dose doubled from 0.5 mM to 1 mM", "result": 52, "unit": "%"}, {"measurement": "inhibiting effect of doubling the dose", "setting": "dose doubled from 1 mM to 2 mM", "result": 25, "unit": "%"}, {"measurement": "glucose production relative to SLP condition (100%)", "setting": "single compound at 0.2 mM", "result": "93.7%±10.85"}, {"measurement": "glucose production relative to SLP condition (100%)", "setting": "single compound at 0.5 mM", "result": "87.00%±17.2"}, {"measurement": "glucose production relative to SLP condition (100%)", "setting": "single compound at 1 mM", "result": "52.67%±4.16"}, {"measurement": "glucose production relative to SLP condition (100%)", "setting": "single compound at 2 mM", "result": "39.19%±7.44"}, {"measurement": "glucose production relative to SLP condition (100%)", "setting": "single compound at 20 mM", "result": "8.39%±2.49"}]}
{"compound": "CN(C)C(=N)N=C(N)N", "note": "[metformin, reference compound]", "values": [{"measurement": "glucose production relative to SLP condition (100%)", "setting": "10 mM, positive control", "result": "9.71%±4.2"}]}
